Experimental data as given in patent US8535740B2, “Compositions from Nigella sativa” (priority 2002, dated 2013).
Converted amounts (≈) assume the structure as drawn. Marks after values point to notes of the source that are not given here.

What was measured:
[1] = test system: iNOS-mediated NO biosynthesis in 3T3-L1 adipocytes; test: LTI cytokine-stimulated NO biosynthesis in 3T3-L1 adipocytes; type: cell-based, murine; settings: Mus musculus, value computed on the basis of TQ content, LPS/TNFα/IFγ stimulation 20 hours, (95% confidence interval), read-out: Median Inhibitory Concentration for iNOS-mediated NO biosynthesis, 3T3-L Adipocytes
Description: Cell culture and treatment-The murine fibroblast cell line 3T3-L1 was purchased from the American Type Culture Collection (Manassas, Va.) and sub-cultured according to instructions from the supplier. Prior to experiments, cells were cultured in DMEM containing 10% FBS-HI added 50 units penicillin/ml and 50 μg streptomycin/ml, and maintained in log phase prior to experimental setup. Cells were grown in a 5% CO2 humidified incubator at 37° C. Components of the pre-confluent medium included: (1) 10% FBS/DMEM (Fetal Bovine Serum/Dulbecco's Modified Eagle's Medium) containing 4.5 g glucose/L; (2) 50 U/ml penicillin; and (3) 50 μg/ml streptomycin. Growth medium was made by adding 50 ml of heat inactivated FBS and 5 ml of penicillin/streptomycin to 500 ml DMEM. This medium was stored at 4° C. Before use, the medium was warmed to 37° C. in a water bath. […] cells were seeded at an initial density of 6×10^4 cells/cm^2 in 24-well plates. […] Determination of nitrite in waters by microplate fluorescence spectroscopy and HPLC with fluorescence detection. […] After a reaction time of 30 minutes at ambient temperature, the fluorescence was read with 485 nm excitation filter and a 530 nm emission filter in a Packard Fluorocount spectrofluorometer (Model #BF10000, Meridan, Conn.). […] Quantitative analysis of dose-effect relationships: the combined effects of multiple drugs or enzyme inhibitors.

[2] = test system: adiponectin secretion in 3T3-L1 adipocytes; test: Adiponectin secretion in t10-CLA-stimulated 3T3-L1 adipocytes; type: cell-based, murine
Description: Treatment—Test materials were added four hours prior to the addition of t10-CLA at a concentration of 50 μM. Following overnight incubation, the supernatant media were sampled for determination of IL-6 and adiponectin. Adiponectin assay—The adiponectin secreted into the medium was quantified using the Mouse Adiponectin Quantikine® Immunoassay kit with no modifications (R&D Systems, Minneapolis, Minn.). […] Statistical Calculations and Interpretation—Test materials and were assayed in duplicate, while solvent controls were replicated eight times. IL-6 and adiponectin secretion were represented relative to the IL-6 and adiponectin secretion of the t10-CLA only controls as the IL-6 and adiponectin index and differences among the means were analyzed by the student's t-test assuming a five percent probability of a type I error (Excel; Microsoft, Redmond, Wash.).

[3] = test system: LPS-stimulated macrophages; settings: published results, El-Mahmoudy 2002; cited from earlier work

In the case of `CC1=CC(=O)C(C(C)C)=CC1=O` [Thymoquinone (Sigma), thymoquinone], the IC50 [1] is reported as 1.9 µg/mL (≈ 11.6 µM), the “effect on t10-CLA-stimulated decrease of adiponectin secretion” value ([2]; concentrations of Table 8) is reported as “attenuated t10-CLA-stimulated decrease of adiponectin secretion” and the “Adiponectin Index” value ([2]; relative to t10-CLA only control (100), 50 μM t10-CLA, overnight, each material at its tabulated concentration) is reported as 128*. For the same molecule, the “IC50 for NO inhibition in LPS-stimulated macrophages” value [3] was 1.4 to 2.8 µg/mL.
